This note sets out measurements from patent publication US20080253978A1, “Derivatives of Pyrrolyltriazine Together with Methods for Obtaining Them and Their Use as Protecting Agents Uv Radiation” (ISDIN, S.A., priority 2005, published 2008).

Values joined by “and” are separate entries in the source; they are usually repeats but may differ in a detail not shown here. Identical values can stand only once.

The nature of series [1]: UV absorption (λmax, εmax) in solution. Format: physicochemical.

As for “2-(1-benzyl-1H-pyrrol-2-yl)-4,6-bis[4-(H-imidazo[1,2-a]pyridin-2-yl)phenylamino]-1,3,5-triazine [Example 10]”, in series [1] (DMSO), the “UV λmax” value came out at 338 nm and the εmax came to 55000 M⁻¹ cm⁻¹.
One may read the melting point as the temperature of the solid-liquid transition. The compound `Oc1ccc(-c2nc(-c3ccc(O)cc3O)nc(-c3cccn3Cc3ccccc3)n2)c(O)c1` [Example 1 b), 2-(1-benzyl-1H-pyrrol-2-yl)-4,6-bis(2,4-dihydroxyphenyl)-1,3,5-triazine] returned a melting point of over 275 °C.
Consider `CCCCC(CC)COc1ccc(-c2nc(-c3ccc(OCC(CC)CCCC)cc3O)nc(-c3cccn3Cc3ccccc3)n2)c(O)c1` (stereo not drawn) [Example 1, 2-(1-benzyl-1H-pyrrol-2-yl)-4,6-bis[4-(2-ethylhexyloxy)-2-hydroxyphenyl]-1,3,5-triazine], for which the melting point lay within 66 to 68 °C. Also, in series [1] (chloroform), the εmax stood at 66000 M⁻¹ cm⁻¹ and the λmax is reported as 350-352 nm.
As to `CCCCOC(=O)c1ccc(Nc2nc(Nc3ccc(C(=O)OCCCC)cc3)nc(-c3cccn3Cc3ccccc3)n2)cc1` [Example 2, 2-(1-benzyl-1H-pyrrol-2-yl)-4,6-bis[4-(butoxycarbonyl)phenylamino]-1,3,5-triazine], the melting point was in the range of 173 to 174 °C. Also, in series [1] (chloroform), the εmax was determined as 64000 M⁻¹ cm⁻¹ and the λmax is reported as 312 nm.
Regarding `c1ccc(Cn2cccc2-c2nc(Nc3ccc(-c4ccccc4)cc3)nc(Nc3ccc(-c4ccccc4)cc3)n2)cc1` [Example 3, 2-(1-benzyl-1H-pyrrol-2-yl)-4,6-bis(biphenyl-4-ylamino)-1,3,5-triazine], the melting point is 185 to 186 °C. Moreover, in series [1] (ethanol), the “UV λmax” value is 309 nm and the εmax turned out to be 73000 M⁻¹ cm⁻¹.
The like results for `O=C(c1ccccc1)c1ccc(Nc2nc(Nc3ccc(C(=O)c4ccccc4)cc3)nc(-c3cccn3Cc3ccccc3)n2)cc1` [Example 4, 2-(1-benzyl-1H-pyrrol-2-yl)-4,6-bis(4-benzoylphenylamino)-1,3,5-triazine] were, in that order, 115 to 118 °C, 330 nm and 80000 M⁻¹ cm⁻¹.
Turning to `O=C1c2ccccc2-c2cc(Nc3nc(Nc4ccc5c(c4)-c4ccccc4C5=O)nc(-c4cccn4Cc4ccccc4)n3)ccc21` [Example 5, 2-(1-benzyl-1H-pyrrol-2-yl)-4,6-bis(9-oxo-9H-fluoren-3-ylamino)-1,3,5-triazine], the melting point lay in the range of 140 to 142 °C. For the same compound, in series [1] (ethanol), the “UV λmax” value turned out to be 292 nm and the εmax is 77000 M⁻¹ cm⁻¹.
With `c1ccc(Cn2cccc2-c2nc(Nc3ccc(-c4cn5ccccc5n4)cc3)nc(Nc3ccc(-c4cn5ccccc5n4)cc3)n2)cc1` [Example 6, 2-(1-benzyl-1H-pyrrol-2-yl)-4,6-bis[4-(imidazo[1,2-a]pyridin-2-yl)phenylamino]-1,3,5-triazine], in series [1] (ethanol), the “UV λmax” value stood at 332 nm and the εmax came to 71000 M⁻¹ cm⁻¹.
The compound `CCCCOC(=O)c1ccc(Nc2nc(Nc3ccc(C(=O)OCCCC)cc3)nc(-c3cccn3C(c3ccccc3)c3ccccc3)n2)cc1` [Example 7, 2-(1-benzydryl-1H-pyrrol-2-yl)-4,6-bis[4-(butoxycarbonyl)phenylamino]-1,3,5-triazine] had a melting point of 80 to 82 °C. In addition, in series [1] (ethanol), the “UV λmax” value is 315 nm and the εmax was determined as 81000 M⁻¹ cm⁻¹.
For `CCCCC(CC)COC(=O)c1ccc(Nc2nc(Nc3ccc(C(=O)OCC(CC)CCCC)cc3)nc(-c3cccn3Cc3ccccc3)n2)cc1` (stereo not drawn) [Example 9, 2-(1-benzyl-1H-pyrrol-2-yl)-4,6-bis[4-((2-ethylhexyloxy)carbonyl)phenylamino]-1,3,5-triazine], in series [1] (CHCl3/MeOH), the “UV λmax” value is listed as 315 nm and the εmax was 76000 M⁻¹ cm⁻¹.
As to `c1ccc(Cn2cccc2-c2nc(Nc3ccc(-c4nc5ccccc5[nH]4)cc3)nc(Nc3ccc(-c4nc5ccccc5[nH]4)cc3)n2)cc1` [Example 11, 2-(1-benzyl-1H-pyrrol-2-yl)-4,6-bis[4-(1H-benzo[d]imidazol-2-yl)phenylamino]-1,3,5-triazine], in series [1] (CHCl3/MeOH), the “UV λmax” value amounted to 327 nm and the εmax is 100000 M^1 cm^−1.
For `c1ccc(Cn2cccc2-c2nc(Nc3ccc(-n4cccn4)cc3)nc(Nc3ccc(-n4cccn4)cc3)n2)cc1` [Example 12, 2-(1-benzyl-1H-pyrrol-2-yl)-4,6-bis[4-(1H-pyrazol-1-yl)phenylamino]-1,3,5-triazine], in series [1] (MeOH), the “UV λmax” value came to 307 nm and the εmax stood at 67000 M⁻¹ cm⁻¹.
Consider `c1ccc(Cn2cccc2-c2nc(Nc3ccc4ccccc4c3)nc(Nc3ccc4ccccc4c3)n2)cc1` [Example 13, 2-(1-benzyl-1H-pyrrol-2-yl)-4,6-bis[naphthalen-2-ylamino]-1,3,5-triazine], for which, in series [1] (MeOH), the “UV λmax” value was 263 nm and 308 nm. Moreover, the εmax in series [1] (MeOH, at λmax=263 nm) amounted to 54000 M⁻¹ cm⁻¹; in series [1] (MeOH, at λmax=308 nm) it was 52000 M⁻¹ cm⁻¹.
Regarding `CCOC(=O)/C=C/c1ccc(Nc2nc(Nc3ccc(/C=C/C(=O)OCC)cc3)nc(-c3cccn3Cc3ccccc3)n2)cc1` [Example 14, 2-(1-benzyl-1H-pyrrol-2-yl)-4,6-bis[4-((E)-3-ethoxy-3-oxoprop-1-enyl)phenylamino]-1,3,5-triazine], in series [1] (MeOH), the “UV λmax” value turned out to be 336 nm and the εmax was determined as 57000 M⁻¹ cm⁻¹.
For `C(=C\c1ccc(Nc2nc(Nc3ccc(/C=C/c4ccccc4)cc3)nc(-c3cccn3Cc3ccccc3)n2)cc1)/c1ccccc1` [Example 15, 2-(1-benzyl-1H-pyrrol-2-yl)-4,6-bis[4-(E)-styrylphenylamino]-1,3,5-triazine], in series [1] (CHCl3), the “UV λmax” value is on record as 336 nm and the εmax turned out to be 102000 M^1 cm^−1.
